From ChEMBL document CHEMBL1201862, “PubChem BioAssay data set” (2004)
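Dose response: 5 concentrations. Exposure: 48 h. Format: 96-well plates. Endpoint: linear interpolation; highest concentration if not reached. GI50 is the concentration that inhibits growth by half.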 Activity calls are given as the source filed them. Cut-off read from the data, not from the text of the source: active = GI50 up to about 1.1 µM and inactive = higher.

How the values were obtained:
Experiment in all cases: growth of human tumour cells (NCI), 48 h
HL-60 = tested on: HL-60
HCC 2998 = tested on: HCC 2998
HT-29 = tested on: HT-29
COLO 205 = tested on: COLO 205
T47D = tested on: T47D
RPMI-8226 = tested on: RPMI-8226
HCT-15 = tested on: HCT-15
A498 = tested on: A498
Malme-3M = tested on: Malme-3M
K562 = tested on: K562
UACC-257 = tested on: UACC-257
SK-OV-3 = tested on: SK-OV-3
A549 = tested on: A549
Hs-578T = tested on: Hs-578T
SF-539 = tested on: SF-539
ACHN = tested on: ACHN
OVCAR-4 = tested on: OVCAR-4
NCI/ADR-RES = tested on: NCI/ADR-RES
SNB-19 = tested on: SNB-19
CAKI-1 = tested on: CAKI-1

Row | SMILES | GI50 (HL-60) | GI50 (HCC 2998) | GI50 (HT-29) | GI50 (COLO 205) | GI50 (T47D) | GI50 (RPMI-8226) | GI50 (HCT-15) [µM] | GI50 (A498) | GI50 (Malme-3M) | GI50 (K562) | GI50 (UACC-257) | GI50 (SK-OV-3) | GI50 (A549) | GI50 (Hs-578T) | GI50 (SF-539) | GI50 (ACHN) | GI50 (OVCAR-4) | GI50 (NCI/ADR-RES) | GI50 (SNB-19) | GI50 (CAKI-1)
1 | [N-]=[N+]=Nc1cccc(-c2nnc(Cl)cc2O)c1 | > 100 µM (inactive) | > 100 µM (inactive) | > 100 µM (inactive) | > 100 µM (inactive) | > 100 µM (inactive) | > 100 µM (inactive) | > 100 | > 100 µM (inactive) | > 100 µM (inactive) | > 100 µM (inactive) | > 100 µM (inactive) | > 100 µM (inactive) | > 100 µM (inactive) | > 100 µM (inactive) | > 100 µM (inactive) | > 100 µM (inactive) | > 100 µM (inactive) | > 100 µM (inactive) | – | –
2 | COC1CC(OC2CCC3(C)C(CCC45CCC(C6=CC(=O)OC6)C(C)(CCC43)C5=O)C2)OC(C)C1O (stereo not drawn) | 18.8 µM (inactive) | 13.1 µM (inactive) | 39.5 µM (inactive) | 40.5 µM (inactive) | 30.8 µM (inactive) | > 10 µM (inactive) | 24.3 | 71.4 µM (inactive) | – | 59.8 µM (inactive) | > 100 µM (inactive) | 46.1 µM (inactive) | 28.5 µM (inactive) | 28.2 µM (inactive) | 20.3 µM (inactive) | 22.1 µM (inactive) | – | 32.5 µM (inactive) | 20.3 µM (inactive) | 32.6 µM (inactive)
3 | CCCCc1ccc(-n2c(C)c(COC(=O)NC)c(COC(=O)NC)c2C)cc1 | 3.56 µM (inactive) | 12.7 µM (inactive) | 11.1 µM (inactive) | 7.21 µM (inactive) | 5.66 µM (inactive) | 4.47 µM (inactive) | 6.18 | 1.1 µM (active) | 6.07 µM (inactive) | 6.03 µM (inactive) | 10.6 µM (inactive) | 3.76 µM (inactive) | 6.08 µM (inactive) | 16.6 µM (inactive) | 4.37 µM (inactive) | 2.11 µM (inactive) | – | 5.55 µM (inactive) | 13.9 µM (inactive) | 2.86 µM (inactive)
4 | CCOC(=O)C(=O)CC(=O)C1=C(c2ccccc2OC)CC(c2cccs2)=CC1=O | 55 µM (inactive) | – | 50.2 µM (inactive) | 39.7 µM (inactive) | 90.6 µM (inactive) | 65.8 µM (inactive) | 82.4 | > 100 µM (inactive) | > 100 µM (inactive) | 23.4 µM (inactive) | > 100 µM (inactive) | 29.7 µM (inactive) | 43.5 µM (inactive) | 2.75 µM (inactive) | 67.1 µM (inactive) | > 100 µM (inactive) | – | 46 µM (inactive) | > 100 µM (inactive) | 57.1 µM (inactive)
5 | O=C(c1cccs1)N(C(=S)OCc1ccccn1)c1ccccc1 | 38.4 µM (inactive) | – | 33.2 µM (inactive) | 88.1 µM (inactive) | 53.8 µM (inactive) | 37.4 µM (inactive) | 53.2 | 75.5 µM (inactive) | 18.6 µM (inactive) | 42 µM (inactive) | > 100 µM (inactive) | > 100 µM (inactive) | – | 38.3 µM (inactive) | 38.5 µM (inactive) | 50.6 µM (inactive) | – | 35.2 µM (inactive) | > 100 µM (inactive) | > 100 µM (inactive)
6 | Cc1nc(N)c(N2CCN([N+](=O)[O-])CC2)c(O)n1 | > 100 µM (inactive) | > 100 µM (inactive) | > 100 µM (inactive) | > 100 µM (inactive) | > 100 µM (inactive) | > 100 µM (inactive) | > 100 | > 100 µM (inactive) | > 100 µM (inactive) | > 100 µM (inactive) | > 100 µM (inactive) | – | > 100 µM (inactive) | > 100 µM (inactive) | > 100 µM (inactive) | > 100 µM (inactive) | > 100 µM (inactive) | > 100 µM (inactive) | > 100 µM (inactive) | –
7 | COC(=O)[C@](C)(Cc1ccccc1)NC(=O)[C@@H](C)N1[C@@H](c2ccccc2)COC1(C)C | 63.5 µM (inactive) | – | 46.9 µM (inactive) | 20.1 µM (inactive) | 46.5 µM (inactive) | 39.5 µM (inactive) | 37.7 | 99.8 µM (inactive) | 44.6 µM (inactive) | 48.1 µM (inactive) | 53.7 µM (inactive) | > 100 µM (inactive) | 63.8 µM (inactive) | 24.5 µM (inactive) | > 100 µM (inactive) | 36.7 µM (inactive) | 39.6 µM (inactive) | 24.9 µM (inactive) | > 100 µM (inactive) | 82.2 µM (inactive)
8 | CC(C)CC(=O)CC(O)C(Cl)(Cl)Cl (stereo not drawn) | – | > 100 µM (inactive) | > 100 µM (inactive) | > 100 µM (inactive) | > 100 µM (inactive) | > 100 µM (inactive) | > 100 | > 100 µM (inactive) | 20.7 µM (inactive) | > 100 µM (inactive) | > 100 µM (inactive) | 87.1 µM (inactive) | > 100 µM (inactive) | 56.2 µM (inactive) | – | > 100 µM (inactive) | > 100 µM (inactive) | > 100 µM (inactive) | > 100 µM (inactive) | > 100 µM (inactive)
9 | O=[N+]([O-])c1ccc(N2N=C(c3ccc4ccccc4c3O)CC2c2ccc(Cl)cc2Cl)c([N+](=O)[O-])c1 (stereo not drawn) | 7.59 µM (inactive) | 30.3 µM (inactive) | 40.1 µM (inactive) | 44.7 µM (inactive) | 27.7 µM (inactive) | 18.8 µM (inactive) | 27.2 | – | 32.2 µM (inactive) | 15.4 µM (inactive) | 48.9 µM (inactive) | 47.8 µM (inactive) | 28.5 µM (inactive) | 27.9 µM (inactive) | 25.6 µM (inactive) | 25.2 µM (inactive) | 41.7 µM (inactive) | 28.6 µM (inactive) | 29.3 µM (inactive) | 54.6 µM (inactive)
10 | Cc1ccc(S(=O)(=O)N2CC3OC(C)(C)OC3C2CO)cc1 (stereo not drawn) | – | > 100 µM (inactive) | > 100 µM (inactive) | > 100 µM (inactive) | > 100 µM (inactive) | > 100 µM (inactive) | > 100 | > 100 µM (inactive) | > 100 µM (inactive) | > 100 µM (inactive) | > 100 µM (inactive) | > 100 µM (inactive) | > 100 µM (inactive) | > 100 µM (inactive) | > 100 µM (inactive) | > 100 µM (inactive) | > 100 µM (inactive) | > 100 µM (inactive) | – | > 100 µM (inactive)
11 | COc1ccc(NC(=O)c2cc(NC(=O)/C=C/c3ccccc3)c(OC)c(OC)c2)cc1 | 6.19 µM (inactive) | – | 8.41 µM (inactive) | 22.5 µM (inactive) | 8.91 µM (inactive) | 3.83 µM (inactive) | 3.99 | 53.6 µM (inactive) | 18.2 µM (inactive) | 13.4 µM (inactive) | 44.1 µM (inactive) | 51.5 µM (inactive) | 7.55 µM (inactive) | 43.5 µM (inactive) | 5.38 µM (inactive) | 4.5 µM (inactive) | 53 µM (inactive) | 28.5 µM (inactive) | 61.1 µM (inactive) | 8.73 µM (inactive)
12 | COc1ccc(N2C(=O)C3c4[nH]c5c(C)cccc5c4C4CCC(c5ccccc5)CC4C3C2=O)cc1 (stereo not drawn) | – | > 10 µM (inactive) | 3.21 µM (inactive) | 8.63 µM (inactive) | 5.81 µM (inactive) | 7.55 µM (inactive) | 11.9 | 18.2 µM (inactive) | – | – | 16.8 µM (inactive) | 17.7 µM (inactive) | 8.57 µM (inactive) | 12.4 µM (inactive) | – | 19.7 µM (inactive) | 11.1 µM (inactive) | 30.3 µM (inactive) | 21.9 µM (inactive) | 16.9 µM (inactive)
13 | CNC(=O)c1ccccc1[S+]1c2cccc3cccc(c23)C(=O)N1C (stereo not drawn) | > 100 µM (inactive) | – | > 100 µM (inactive) | > 100 µM (inactive) | > 100 µM (inactive) | > 100 µM (inactive) | > 100 | > 100 µM (inactive) | > 100 µM (inactive) | > 100 µM (inactive) | > 100 µM (inactive) | – | > 100 µM (inactive) | > 100 µM (inactive) | > 100 µM (inactive) | > 100 µM (inactive) | > 100 µM (inactive) | > 100 µM (inactive) | > 100 µM (inactive) | > 100 µM (inactive)
14 | CCCC(=O)NC(Nc1ccc(S(=O)(=O)Nc2cc(C)on2)cc1)(C(=O)OCC)C(F)(F)F (stereo not drawn) | > 100 µM (inactive) | > 100 µM (inactive) | > 100 µM (inactive) | > 100 µM (inactive) | > 100 µM (inactive) | > 100 µM (inactive) | > 100 | – | > 100 µM (inactive) | > 100 µM (inactive) | > 100 µM (inactive) | > 100 µM (inactive) | > 100 µM (inactive) | > 100 µM (inactive) | > 100 µM (inactive) | > 100 µM (inactive) | > 100 µM (inactive) | > 100 µM (inactive) | > 100 µM (inactive) | > 100 µM (inactive)
15 | COc1cc(O)c2c(O)c3c(=O)oc(C)cc3c(OC)c2c1 [PAEPALANTINE] | 27.3 µM (inactive) | – | 21.2 µM (inactive) | 19.2 µM (inactive) | 32.4 µM (inactive) | 20 µM (inactive) | 28.3 | 61.7 µM (inactive) | 21.4 µM (inactive) | 23 µM (inactive) | 31 µM (inactive) | 24.5 µM (inactive) | 25.8 µM (inactive) | 29.6 µM (inactive) | 21 µM (inactive) | 23.7 µM (inactive) | 14.7 µM (inactive) | 19.6 µM (inactive) | 39.3 µM (inactive) | 31 µM (inactive)
